Consider one compound from patent publication US12251383B2, “Methods and compositions for KRAS inhibitors” (The Board of Regents of the University of Texas System, priority 2019, dated 2025).

For one assay, the system named is KRAS^G12D. The experiment in a line: Cell signaling (Western) in BHK cells expressing KRAS G12D. The following applies: for IC50: Mesocricetus auratus, BHK, 3 h. The assay is classed as cell-based, hamster. How it is done: Cell signaling. The inhibitory potential of compounds was tested in monoclonal Baby Hamster Kidney (BHK) cell lines stably expressing monomeric green fluorescence protein (mGFP)-tagged KRAS^G12D, K-Ras^G12V and HRAS^G12V. Cells were cultured in Dulbecco's Modified Eagle Medium (DMEM, Hyclone) supplemented with 10% v/v bovine calf serum and incubated with compound or vehicle (DMSO) for 3 h without serum. Cells were then harvested in lysis buffer (50 mM Tris (pH 7.5), 75 mM NaCl, 25 mM NaF, 5 mM MgCl2, 5 mM EGTA, 1 mM dithiothreitol, 100 μM NaVO4, 1% Nonidet P40 plus protease inhibitors) and subjected to Western analysis controlling protein loading by BCA (bicinchoninic acid) assay. Lysates were resolved with Bio-Rad polyacrylamide TGX 10% gel, transferred to polyvinylidene fluoride (PVDF) membrane and immunoblotted using pan-AKT (2920S), GFP (2956S), pAKT^S473 (4060L), p-cRaf^S338 (9427S), p-ERK^T202/Y204 (4370L), ERK1/2 (4695S) or β-actin antibodies (Cell Signaling Technology). IC50 values were calculated with Prism 4-parameter fit.
Cell signaling assays identify compound 11 as a promising initial hit Western analysis was used to quickly assess the potential impact of the predicted hits on MAPK signaling, a major pathway mediated by KRAS. Specifically, ERK1/2 phosphorylation levels (p-ERK) were monitored in BHK cells stably expressing KRAS^G12D treated with vehicle (DMSO), the MEK inhibitor […] (U) or compound at four different concentrations (1-100 μM). […] Compounds 9 and 11 (structures for compounds 1-11 are provided in Appendix I, attached hereto), on the other hand, decreased p-ERK levels at concentrations ≥50 μM and ≥5 μM, respectively. To verify the latter observation, the experiments were repeated in an expanded concentration range starting from 0.1 μM. […] However, compound 9 (see Appendix I, attached hereto) increased p-ERK levels at 25 and 38 μM in contrast to the decrease observed at higher concentrations (FIG. S1B; see Appendix I, attached hereto).

Assay [1] deals with H1975 (KRAS^WT) lung cancer cells. The experiment in a line: Cell proliferation (CyQuant), H1975. The assay is classed as cell-based. As to conditions: 72 h. On the procedure:
(§1) Cell proliferation. Potential effect of the ligands on cancer cell proliferation was tested in three lung cancer cells: SKLU-1, H1975 and H522. Cells were plated at ˜1,000 cell per well in a 96-well plate and maintained in full serum media with or without compound at 37° C. for 72 h changing the media with the compound every 24 h. Media with compound was prepared by serial dilution at concentrations indicated. Then cells were washed with PBS and frozen at −80° C. for a minimum of 24 h. Plates were thawed and CyQuant™ dye (in lysis buffer provided in the CyQuant™ cell proliferation assay kit, Invitrogen™) was added, and after a five-minute incubation, fluorescence (excitation: 480 nm emission: 520 nm) was measured with a Tecan Infinite M200 plate reader.

Assay [2] has as its system H522 (KRAS^WT) lung cancer cells. The assay is described as follows: Cell proliferation (CyQuant), H522. The following applies: 72 h. The assay is classed as cell-based. How it is done: as §1
Another assay deals with KRASWT (Homo sapiens, UniProt P01116). The assay is described as follows: Nucleotide exchange assay (intrinsic and SOS-mediated). The assay is classed as biochemical. How it is done:
Nucleotide exchange and release assays. Loading of fluorescent-labeled GDP (BODIPY-GDP; BGDP from hereon) to KRAS was conducted following previous reports (23, 47), with minor modifications. Purified KRAS was buffer-exchanged in NAP-5 column (GE Life Sciences) in low Mg^2+ buffer (25 mM Tris pH 7.5, 50 mM NaCl, and 0.5 mM MgCl2). The eluate was incubated with 10-fold molar excess of BGDP (Life Technologies) in the presence of 5 mM EDTA and 1 mM DTT for 1.5 h at 20° C. in the dark. Then 10 mM MgCl2 was added and the solution was incubated for 30 min at 20° C. Free nucleotide was removed by gel filtration using a PD-10 column (GE Life Sciences) that had been equilibrated with the reaction buffer (25 mM Tris-HCL pH 7.5, 50 mM NaCl, 1 mM MgCl2, and 1 mM DTT). The concentration of ^BGDPKRAS was determined using Bradford assay and a BGDP standard curve. Then the effect of ligands on the intrinsic rate of nucleotide release was monitored using the decrease in fluorescence with time as BGDP dissociates from KRAS in a 100 μL reaction mixture (96-well plate) of 0.5 μM B^GDPKRAS, 100 μM GTP and varying concentrations of ligand (0 to 25 μM); GTP was added just before measurements. To measure the rate of SOS-mediated nucleotide release, 0.5 μM SOS (residues 564-1049, Cytoskeleton Inc) was added after adding GTP, and fluorescence was immediately read (excitation: 485 nm, emission: 510 nm) using Tecan Infinite M200 plate reader. Intrinsic and SOS-mediated nucleotide exchange rates were monitored with the fluorescence intensity increase of BGTP as it displaces GDP from KRAS. A 100 μL reaction mixture was used containing 0.5 μM each of ^GDPKRAS, BGTP (and SOS) plus varying concentrations of ligand (0 to 25 μM); BGTP was added just before measurements. Experiments were conducted with minimal light and the reaction was monitored for 2 h at room temperature. Fluorescence intensities were normalized at 120 s and the traces were fit with linear or single exponential functions (Igor Pro, Wavemetrics).
The effect of compound 11 on intrinsic and GEF-dependent nucleotide release and exchange reactions was determined. […] In particular, 11 decreased the intrinsic rate of nucleotide exchange by ˜10-fold at >10 μM (Fig S4, top-left), but it has no effect on intrinsic nucleotide release (Appendix I, Figure S4, bottom-left). […] Since GTP hydrolysis is unlikely to occur within the timescale of the experiments disclosed herein (2, 3), a plausible interpretation of the former would be compromised GTP loading. This is possible if, for example, the ligand binds to the nucleotide free ‘transition state’ conformation of KRAS and induces reorganization of active site residues. […]

For assay [3], the system named is RASless MEF cells expressing BRAF V600E. The assay is described as follows: Proliferation of RASless MEF cells expressing BRAF V600E. The assay is classed as cell-based. As to conditions: Mus musculus, normalized to DMSO control, 3 measurements, read-out: IC50 for inhibition of proliferation. How it is done: Cell numbers were averaged from 3 independent measurements and normalized with respect to DMSO control. Assays were conducted as described in McCarthy et al, (ACS Omega2019, 4, 2, 2921-2930).

“Also recorded” adds a separate entry of the source. Where two headings read alike, the source gives them in different places.

KRASWT, sequence (P01116 1-188 isoform P01116-2): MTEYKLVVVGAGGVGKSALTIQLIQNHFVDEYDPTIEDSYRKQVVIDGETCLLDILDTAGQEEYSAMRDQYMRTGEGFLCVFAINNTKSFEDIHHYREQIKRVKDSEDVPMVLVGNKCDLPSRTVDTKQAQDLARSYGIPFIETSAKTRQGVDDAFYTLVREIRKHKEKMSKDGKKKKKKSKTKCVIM

For the compound `Cc1nn2c(N3CCN(CCO)CC3)cc(-c3ccccc3)nc2c1-c1ccccc1` [Compound 11, 2-[4-(8-methyl-3,9-diphenyl-2,6,7-triazabicyclo[4.3.0]nona-2,4,7,9-tetraen-5-yl)piperazin-1-yl]ethanol], the “concentration at which p-ERK levels are decreased” value in the assay with KRAS^G12D (BHK KRAS^G12D) is at least 5 µM. In addition, the “effect on p-ERK levels” value in the assay with KRAS^G12D (BHK KRAS^G12D) is “dose-dependently reduced; also recorded: dose-dependently decreases”. In the assay with KRAS^G12D (BHK KRAS^G12D), the “effect on p-cRaf levels” value is recorded as “dose-dependently reduced; also recorded: dose-dependently decreases”. In addition, in the assay on KRAS^G12D (BHK KRAS^G12D, at 5 μM), the “reduction of p-ERK levels” value is given as around 50%. In addition, the results for the IC50 (in the assay on KRAS^G12D (read-out: IC50 for p-ERK); with KRAS^G12D (read-out: IC50 for p-cRaf); in assay [3]) were 1.3 µM, 0.7 µM and 1.68 ± 0.17 µM, respectively. The sensitivity of proliferation result in assay [1] and in assay [2] was “sensitive” in each case. Moreover, the “effect on SOS-mediated nucleotide exchange rate” value at KRASWT (SOS-mediated) was “slightly reduced”. Besides, the “decrease of rate of nucleotide exchange” value on KRASWT (SOS-mediated (Fig S4 top-right)) stood at 1.1 fold. Besides, the “effect on intrinsic nucleotide exchange rate” value on KRASWT (intrinsic) was “slightly reduced”. For the same compound, the “decrease of intrinsic rate of nucleotide exchange” value on KRASWT (intrinsic, at >10 μM) is around 10 fold.
